Source: patent US12637425B2, “Compounds and formulations for treating ophthalmic diseases” (Visus Therapeutics, Inc., priority 2020, dated 2026)

Molecular target: T1, Recombinant cryAB(R120G) protein (Homo sapiens, UniProt P02511, R120G)
T1 sequence (P02511 1-175 R120G): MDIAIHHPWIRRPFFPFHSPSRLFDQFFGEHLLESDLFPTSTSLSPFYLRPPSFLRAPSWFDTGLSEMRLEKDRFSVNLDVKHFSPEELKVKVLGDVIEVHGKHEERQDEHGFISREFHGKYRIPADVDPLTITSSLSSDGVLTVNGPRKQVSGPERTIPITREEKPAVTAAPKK
Experiment: Kinetic turbidity aggregation assay of recombinant cryAB(R120G)
Type: biochemical
Conditions: for inhibition at 25 µM: 25 μM compound, read-out: % Inhibition of Protein Aggregation, 25 μM cmpd; for inhibition at 25 µM / inhibition at 100 µM: 15 μM cryAB(R120G), 42° C., absorbance at 550 nm; for inhibition at 100 µM: 100 μM compound, read-out: % Inhibition of Protein Aggregation, 100 μM cmpd
Outline: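 Recombinant human cryAB R120G at 15 μM final in 50 mM Tris, 100 mM NaCl, 5 mM DTT, 0.01% Triton X-100, 0.05% PEG-8000 with 4% DMSO. Compounds added from 2-fold serial DMSO dilutions, run in quadruplicate; aggregation followed kinetically by turbidity.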

Structure (SMILES)	inhibition at 25 µM	inhibition at 100 µM	IC50 (inhibition of cryAB(R120G) protein aggregation)
O=S(=O)(NC[C@@H](c1cnc2ccccn12)N1CCCC1)c1ccc2cc[nH]c2c1 [Compound 79, (S)-N-(2-(imidazo[1,2-a]pyridin-3-yl)-2-(pyrrolidin-1-yl)ethyl)-1H-indole-6-sulfonamide]	8%	98.7%	–
Cn1cc([C@@H](CNS(=O)(=O)c2ccc3cc[nH]c3c2)N2CCCC2)c2cnccc21 [Compound 80, (S)-N-(2-(1-methyl-1H-pyrrolo[3,2-c]pyridin-3-yl)-2-(pyrrolidin-1-yl)ethyl)-1H-indole-6-sulfonamide]	-28%	95.1%	–
Cn1cc([C@H](CNS(=O)(=O)c2ccc3cc[nH]c3c2)N2CCCC2)c2cnccc21 [Compound 81, (R)-N-(2-(1-methyl-1H-pyrrolo[3,2-c]pyridin-3-yl)-2-(pyrrolidin-1-yl)ethyl)-1H-indole-6-sulfonamide]	-12%	23%	–
Cn1cc([C@@H](CNS(=O)(=O)c2ccc3cc[nH]c3c2)N2CCCC2)c2ccncc21 [Compound 82, (S)-N-(2-(1-methyl-1H-pyrrolo[2,3-c]pyridin-3-yl)-2-(pyrrolidin-1-yl)ethyl)-1H-indole-6-sulfonamide]	16%	38%	–
Cn1cc([C@H](CNS(=O)(=O)c2ccc3cc[nH]c3c2)N2CCCC2)c2ccncc21 [Compound 83, (R)-N-(2-(1-methyl-1H-pyrrolo[2,3-c]pyridin-3-yl)-2-(pyrrolidin-1-yl)ethyl)-1H-indole-6-sulfonamide]	1%	26%	–
Cn1cc([C@@H](CNS(=O)(=O)c2ccc3cc[nH]c3c2)NCc2cncs2)c2ccccc21 [Compound 84, (S)-N-(2-(1-methyl-1H-indol-3-yl)-2-((thiazol-5-ylmethyl)amino)ethyl)-1H-indole-6-sulfonamide]	25%	71.8%	–
Cn1cc([C@H](CNS(=O)(=O)c2ccc3cc[nH]c3c2)NCc2cncs2)c2ccccc21 [Compound 85, (R)-N-(2-(1-methyl-1H-indol-3-yl)-2-((thiazol-5-ylmethyl)amino)ethyl)-1H-indole-6-sulfonamide]	37%	84.4%	–
CN(Cc1cncs1)[C@H](CNS(=O)(=O)c1ccc2cc[nH]c2c1)c1cn(C)c2ccccc12 [Compound 86, (S)-N-(2-(methyl(thiazol-5-ylmethyl)amino)-2-(1-methyl-1H-indol-3-yl)ethyl)-1H-indole-6-sulfonamide]	80%	94.1%	–
CN(Cc1cncs1)[C@@H](CNS(=O)(=O)c1ccc2cc[nH]c2c1)c1cn(C)c2ccccc12 [Compound 87, (R)-N-(2-(methyl(thiazol-5-ylmethyl)amino)-2-(1-methyl-1H-indol-3-yl)ethyl)-1H-indole-6-sulfonamide]	47%	83.2%	–
CNC(CNS(=O)(=O)c1ccc2cc[nH]c2c1)c1cn(C)c2ccccc12 (centres unmarked) [Compound 88, N-(2-(1-methyl-1H-indol-3-yl)-2-(methylamino)ethyl)-1H-indole-6-sulfonamide]	21%	94.3%	–
Cn1nc([C@@H](CNS(=O)(=O)c2ccc3cc[nH]c3c2)N2CCCC2)c2ccccc21 [Compound 89, (R)-N-(2-(1-methyl-1H-indazol-3-yl)-2-(pyrrolidin-1-yl)ethyl)-1H-indole-6-sulfonamide]	98.4%	99.7%	≤ 10 µM
Cn1nc([C@H](CNS(=O)(=O)c2ccc3cc[nH]c3c2)N2CCCC2)c2ccccc21 [Compound 90, (S)-N-(2-(1-methyl-1H-indazol-3-yl)-2-(pyrrolidin-1-yl)ethyl)-1H-indole-6-sulfonamide]	-15%	65.6%	–
CCn1nc([C@H](CNS(=O)(=O)c2ccc3cc[nH]c3c2)N2CCCC2)c2ccccc21 [Compound 92, (S)-N-(2-(1-ethyl-1H-indazol-3-yl)-2-(pyrrolidin-1-yl)ethyl)-1H-indole-6-sulfonamide]	49%	99.3%	–
CCn1nc([C@@H](CNS(=O)(=O)c2ccc3cc[nH]c3c2)N2CCC2)c2ccccc21 [Compound 94, (R)-N-(2-(azetidin-1-yl)-2-(1-ethyl-1H-indazol-3-yl)ethyl)-1H-indole-6-sulfonamide]	97.7%	99.1%	–
CCn1nc([C@H](CNS(=O)(=O)c2ccc3cc[nH]c3c2)N2CCC2)c2ccccc21 [Compound 95, (S)-N-(2-(azetidin-1-yl)-2-(1-ethyl-1H-indazol-3-yl)ethyl)-1H-indole-6-sulfonamide]	14%	56.2%	–
COc1cc2cc[nH]c2cc1S(=O)(=O)NCC(c1cn(C)c2ccccc12)N(C)C (centres unmarked) [Compound 96, N-(2-(dimethylamino)-2-(1-methyl-1H-indol-3-yl)ethyl)-5-methoxy-1H-indole-6-sulfonamide]	60%	58.8%	–
COc1ccc2[nH]ccc2c1S(=O)(=O)NCC(c1cn(C)c2ccccc12)N(C)C (centres unmarked) [Compound 97, N-(2-(dimethylamino)-2-(1-methyl-1H-indol-3-yl)ethyl)-5-methoxy-1H-indole-4-sulfonamide]	-45%	58.8%	–
Cn1nc([C@@H](CNS(=O)(=O)c2ccc3cc[nH]c3c2)N2CCC2)c2ccccc21 [Compound 98, (R)-N-(2-(azetidin-1-yl)-2-(1-methyl-1H-indazol-3-yl)ethyl)-1H-indole-6-sulfonamide]	92.9%	99.1%	–
Cn1nc([C@H](CNS(=O)(=O)c2ccc3cc[nH]c3c2)N2CCC2)c2ccccc21 [Compound 99, (S)-N-(2-(azetidin-1-yl)-2-(1-methyl-1H-indazol-3-yl)ethyl)-1H-indole-6-sulfonamide]	-56%	21.3%	–
Cc1ccc2c(C(CNS(=O)(=O)c3ccc4cc[nH]c4c3)N(C)C)cn(C)c2c1 (centres unmarked) [Compound 100, N-(2-(1,6-dimethyl-1H-indol-3-yl)-2-(dimethylamino)ethyl)-1H-indole-6-sulfonamide]	61.7%	99.9%	–
Cn1cc([C@@H](CNS(=O)(=O)c2ccc3cc[nH]c3c2)N2CCC2)c2ccccc21 [Compound 101, (S)-N-(2-(azetidin-1-yl)-2-(1-methyl-1H-indol-3-yl)ethyl)-1H-indole-6-sulfonamide]	63%	97.6%	–
Cn1cc([C@H](CNS(=O)(=O)c2ccc3cc[nH]c3c2)N2CCC2)c2ccccc21 [Compound 102, (R)-N-(2-(azetidin-1-yl)-2-(1-methyl-1H-indol-3-yl)ethyl)-1H-indole-6-sulfonamide]	94%	94.3%	–
CC1CN(C(CNS(=O)(=O)c2ccc3cc[nH]c3c2)c2cn(C)c3ccccc23)C1 (centres unmarked) [Compound 103, N-(2-(1-methyl-1H-indol-3-yl)-2-(3-methylazetidin-1-yl)ethyl)-1H-indole-6-sulfonamide]	59%	99.7%	–
